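48-hour exposure; five concentrations; linearly interpolated endpoints. The concentration for 50% growth inhibition is given as GI50. Definition used: TGI = concentration required for complete inhibition of growth.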
Experiments:
Test in all cases: inhibition of tumour cell growth, NCI panel, 48 h
NCI-H522 lung = system: NCI-H522 lung
NCI-H226 lung = system: NCI-H226 lung
OVCAR-8 ovarian = system: OVCAR-8 ovarian
HT29 colon = system: HT29 colon
SNB-19 CNS = system: SNB-19 CNS
OVCAR-5 ovarian = system: OVCAR-5 ovarian
MALME-3M melanoma = system: MALME-3M melanoma
SF-539 CNS = system: SF-539 CNS
RXF 393 renal = system: RXF 393 renal
SNB-75 CNS = system: SNB-75 CNS

Compound | TGI (NCI-H522 lung) [µM] | TGI (NCI-H226 lung) [µM] | TGI (OVCAR-8 ovarian) [µM] | TGI (HT29 colon) [µM] | TGI (SNB-19 CNS) [µM] | TGI (OVCAR-5 ovarian) [µM] | TGI (MALME-3M melanoma) [µM] | TGI (SF-539 CNS) [µM] | TGI (RXF 393 renal) [µM] | TGI (SNB-75 CNS) [µM] | GI50 (NCI-H522 lung) [µM] | GI50 (OVCAR-8 ovarian) [µM] | GI50 (HT29 colon) [µM] | GI50 (SNB-19 CNS) [µM] | GI50 (OVCAR-5 ovarian) [µM] | GI50 (MALME-3M melanoma) [µM] | GI50 (SF-539 CNS) [µM] | GI50 (SNB-75 CNS) [µM] | GI50 (NCI-H226 lung) [µM] | GI50 (RXF 393 renal) [µM]
C1CSCCSCCCSCCSCCCSCCSCCCSCCSC1 | > 100 | > 100 | > 100 | > 100 | > 100 | > 100 | > 100 | > 100 | > 100 |  |  |  |  |  |  |  |  |  |  | 
Cc1cc2c(c(C(N)=O)c1C)-c1cc(Cl)cc(Cl)c1C2=O | > 100 |  | > 100 | > 100 | > 100 | > 100 | > 100 | > 100 | > 100 | 45.6 |  |  |  |  |  |  |  |  |  | 
c1cc(-c2cn3c(n2)SCC3)ccn1 | > 100 | > 100 | > 100 | > 100 | > 100 | > 100 | > 100 | > 65.2 |  | > 100 |  |  |  |  |  |  |  |  |  | 
O=C(/C=C/c1ccc(Cl)c(Cl)c1)c1cccc2ccccc12 | 10 | 28.3 | 4.74 | 12.1 | 19.4 | 26.9 | 32.4 | 7.14 |  | 14 |  |  |  |  |  |  |  |  |  | 
O=C(Cc1nc2ccccc2o1)C(=O)Nc1cccc(C(F)(F)F)c1 | > 100 | > 100 | > 100 | > 100 | > 100 | > 100 | > 100 | > 100 |  | > 100 |  |  |  |  |  |  |  |  |  | 
CC(=O)/C(=C\c1ccccc1O)C(=O)Nc1ccccc1C |  | 62.4 | > 100 | 37.2 | 54.3 | 37.1 | 47.7 | 42.2 | 37.5 |  |  |  |  |  |  |  |  |  |  | 
CC1=NN(c2ccccc2)C(=O)/C1=C\c1ccc([N+](=O)[O-])cc1 | 57.9 |  | > 100 | 97 | > 100 | 50.8 | 69.3 | 45.2 | 41.4 | > 100 |  |  |  |  |  |  |  |  |  | 
ClC1=C(Cl)C(Cl)(Cl)c2c3c(c4c(c21)C(Cl)(Cl)C(Cl)=C4Cl)C(Cl)(Cl)C(Cl)=C3Cl | > 100 | > 100 | > 100 | > 100 | > 100 |  | > 100 | > 100 |  |  |  |  |  |  |  |  |  |  |  | 
CC(C)(C)c1cc2nc(c1)C(C(F)(F)F)(C(F)(F)F)OB(Br)OC2(C(F)(F)F)C(F)(F)F |  |  | 0.427 | 12.1 | 14.9 | 8.39 | 4.42 | 7.31 | 22 | 13 |  |  |  |  |  |  |  |  |  | 
c1ccc2c(c1)CCc1c-2n[nH]c1-c1[nH]nc2c1CCc1ccccc1-2 |  | > 100 | > 100 | > 100 | > 100 | > 100 | > 100 | > 100 |  | > 100 |  |  |  |  |  |  |  |  |  | 
CC(CO)(Nc1ccc([N+](=O)[O-])cc1[N+](=O)[O-])C(=O)O (configuration not stated) | 39 | > 100 | > 100 | 30.4 | > 100 | 89 | 36.1 | 91.1 | 24.6 |  |  |  |  |  |  |  |  |  |  | 
O=Cc1ccc2c(c1I)OCO2 | > 100 | > 100 | > 100 | > 100 | > 100 | > 100 | > 100 | > 100 |  | > 100 |  |  |  |  |  |  |  |  |  | 
C=C1[C@@H](O)O[C@H]2[C@H]1C[C@H](OC(C)=O)[C@]13C(=O)O[C@H]4C[C@](C)(O)[C@H]([C@H]41)C31C=C(C)[C@]2(O)O1 | 21.4 |  | 58.8 | > 100 | > 100 | 48 | 46.1 | 52 |  |  | 4.53 | 22.7 | 75.4 | > 100 | 21.7 | 16.3 | 21.1 |  |  | 
COc1cc(C2(C)SCCCS2)cc(OC)c1OC | > 100 | > 100 | > 100 | > 100 | > 100 | > 100 | > 100 | > 100 |  | > 100 |  |  |  |  |  |  |  |  |  | 
COc1ccc(NC(=O)C(=O)/C=C(\O)c2ccccc2)cc1 |  |  | > 10 | > 10 |  |  | > 10 |  | > 10 | > 10 |  |  |  |  |  |  |  |  |  | 
C[C@@H]1O[C@@H](O[C@@H]2[C@@H](O)[C@H](OCCc3ccc(O)c(O)c3)O[C@H](CO)[C@H]2OC(=O)/C=C/c2ccc(O)c(O)c2)[C@H](O)[C@H](OC2OC[C@](O)(CO)[C@H]2O)[C@H]1O (some centres not stated) | > 100 | > 100 | 40 |  | > 100 | > 100 |  | > 100 | > 100 | > 100 | > 100 | 18.7 |  | > 100 | > 100 |  | > 100 | > 100 | > 100 | 72
